{
  "source": "patent US11632963B2",
  "about": "“Tuber storage” (Arysta Lifescience Benelux Sprl, priority 2014, dated 2023)",
  "key": {"[1]": {"system": "potatoes (Bintje and Innovator)", "test": "Tuber treatment in cabins, sprout formation (Example 2)", "format": "in vivo, Solanum tuberosum", "settings": "600 EC limonene composition, 90 ml/1000 kg then 30 or 90 ml/1000 kg every 3 weeks, fogging", "method": "In a second example, use of a 600 EC limonene composition according to example 1 the treatment of potatoes is illustrated.\nIn this example, 10 equal amounts of potatoes (20 kg Bintje and 20 kg Innovator) were treated in 5 different cabins. The first cabin acted as a control. No treating agent was applied in the first cabin.\nIn cabin 4, a composition according to example 1 was used, with limonene as active ingredient. The first application was done 2 weeks after harvesting at a concentration of 90 ml/1000 kg potatoes. After this application, the next applications were at a dose of 30 ml/1000 kg potatoes.\nIn cabin 5, the same composition as used in cabin 4 was used with 600 g/l limonene as active ingredient. The first application was done 2 weeks after harvesting at a concentration of 90 ml/1000 kg potatoes. Every 3 weeks the application was repeated at the same dose.\nFor all the cabins, the first treatment was on 22 October, 2 weeks after harvest. The potatoes were investigated for sprout formation at February 5, the next year, March 4, and April, 4. For each amount of potatoes the weight loss was determined, the sprout index was determined and the sprout weight was measured.\nThe sprout weight expressed in grams of the “Innovator”-variety potatoes is depicted in FIG. 3 for each cabin and at the 3 different times, corresponding to around 4, 5 and 6 months after harvest."}, "[2]": {"system": "potatoes", "settings": "WO 92/10934, cited from earlier work"}, "[3]": {"system": "Potatoes from the variety Bintje, Innovator and Nicola", "test": "Fresh sprout weight of stored potatoes treated by fogging (Example 7)", "format": "in vivo, Solanum tuberosum", "settings": "Treatment at 50 ml/ton, corresponding to 450 g limonene/ton or 450 ppm", "method": "Potatoes were treated with 100% orange oil every 3 weeks via application by cold fogging using a potato mist blower VEUGEN in the above part of a storage cell between bag fillings and the top of the cell.\nPotatoes from the variety Bintje, Innovator and Nicola were stored in a storage room and each storage room (trail number) was treated with a different product in the anti-sprouting treatment. BIO-024 stands for Orange oil, with at least 900 g limonene/1, BIOX M is a trade name of a mint oil based product that is commercially available as an anti-sprouting agent, Gro Stop fog is a trade name of a CIPC containing product for the treatment of sprouting of potatoes.\nAn overview of the fresh sprout weight and the weight loss of samples that were taken on 11 February, 11 March, 8 April and 6 May is given in Table 6. […] Storage was carried out from 11 October until 16 May the year after, all products were applied by fogging.\nFresh sprout weight was assessed by weighing all sprouts per sample. Sprout weight was calculated for a standard sized sample of 1.0 kg potatoes: Fresh sprout weight(g)=fresh sprout weight sample/(weight sample unloading−sprouts)"}, "[4]": {"system": "potatoes", "settings": "45 g/ton at start and 15 g/ton every 20 days, after 5 months, WO 00/32063, cited from earlier work"}},
  "data": [
    {"smiles": "C=C(C)[C@H]1CC=C(C)CC1", "note": "[limonene]", "values": [
      {"measurement": "effectiveness as treatment agent on its own (sprout formation)", "setting": "[1]", "value": "sufficient effectiveness"},
      {"measurement": "influence on potato sprouting", "setting": "[2]; headspace concentration of 1.70 mg/L after 7 days", "value": "did not have an influence on potato sprouting"},
      {"measurement": "eyes with sprouts", "setting": "[2]; three unsprouted potatoes exposed to a 2 ml limonene soaked filter paper in a desiccator flask", "value": 0, "unit": "%"},
      {"measurement": "effectiveness to reach the levels of control obtainable by CIPC or mint oil", "setting": "[3]", "value": "not sufficiently effective"},
      {"measurement": "weight loss", "setting": "[4]; 60 wt % limonene composition, untreated control 5.4%", "value": 4.5, "unit": "%"},
      {"measurement": "sprout growth", "setting": "[4]; limonene as 60 wt % composition, untreated control 100%", "value": 96.8, "unit": "%"}
    ]}
  ]
}
